Experiments:
Pantothenate kinase [1] = molecular target: T1, Pantothenate kinase (Mycobacterium tuberculosis (strain ATCC 25618 / H37Rv), UniProt P9WPA7); assay: Biochemical Assay (ATP at Km)
T1 sequence (P9WPA7 whole entry): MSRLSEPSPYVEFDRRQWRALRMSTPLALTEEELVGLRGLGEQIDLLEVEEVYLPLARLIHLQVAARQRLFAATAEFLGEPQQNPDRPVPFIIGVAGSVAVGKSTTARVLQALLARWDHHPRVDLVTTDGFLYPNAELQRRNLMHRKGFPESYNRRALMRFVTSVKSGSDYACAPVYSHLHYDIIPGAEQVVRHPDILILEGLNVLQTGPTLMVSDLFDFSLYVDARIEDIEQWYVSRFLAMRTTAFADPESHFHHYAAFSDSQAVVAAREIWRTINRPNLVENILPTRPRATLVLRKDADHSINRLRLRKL
Description: Briefly, MtPanK activity was measured in a pyruvate kinaselactate dehydrogenase-coupled assay where the reaction rate was determined by spectrophotometric measurement of NADH consumption. IC50 measurements were performed with a suitable concentration range of inhibitory compound, while keeping the concentration of pantothenate and ATP at 122 and 395 µM, respectively, which is their respective Km.

Pantothenate kinase [2] = molecular target: T1, Pantothenate kinase; assay: Biochemical Assay (ATP at 50x Km)
Description: Briefly, MtPanK activity was measured in a pyruvate kinaselactate dehydrogenase-coupled assay where the reaction rate was determined by spectrophotometric measurement of NADH consumption. A second set of IC50 measurements were performed with the ATP concentration at 50× Km, to determine the effect of cofactor competition.

| SMILES | IC50 (Pantothenate kinase [1]) | IC50 (Pantothenate kinase [2]) |
| --- | --- | --- |
| N#Cc1ccc(-c2ccc(COC(=O)O)cc2CN2CCN(c3ccccn3)CC2)cc1 [Biaryl 2a] | 120 nM | 0.13 µM |
| N#Cc1ccc(-c2ccc(OCC(N)=O)cc2CN2CCN(c3ccccn3)CC2)cc1 [Biaryl 2b] | 550 nM | – |
| CC(NC(=O)c1ccccc1C(F)(F)F)c1nnc(SCCOc2ccc(F)cc2)n1C (stereo not given) [Triazole 1a] | 90 nM | 5.5 µM |
| CC(NC(=O)c1ccccc1Cl)c1nnc(SCCOc2ccc(F)cc2)n1C (stereo not given) [Triazole 1b] | 1130 nM | > 12.5 µM |
| CC(NC(=O)c1ccccc1C(F)(F)F)c1nnc(SCc2ccc(F)cc2)n1C (stereo not given) [Triazole 1c] | 150 nM | 10.4 µM |
| Cc1ccccc1OCCSc1nnc(C(C)NC(=O)c2ccccc2C(F)(F)F)n1C (stereo not given) [Triazole 1d] | 140 nM | 2.82 µM |
| CC(NC(=O)c1ccccc1C(F)(F)F)c1nnc(SCCOc2ccc(F)cc2)n1Cc1ccc(F)cc1 (stereo not given) [Triazole 1e] | 50 nM | 0.69 µM |
| CC(NC(=O)c1c(F)cccc1F)c1nnc(SCCOc2ccc(F)cc2)n1C (stereo not given) [Triazole 1f] | 1090 nM | 14 µM |
